The values below come from PMC8286840, “Identifying SARS-CoV-2 antiviral compounds by screening for small molecule inhibitors of Nsp3 papain-like protease” (Biochemical Journal, 2021).

Where a name gives a salt, the structure may show the parent alone. Read-outs that look alike come from different tables or passages of the source.

Assay [1] addresses T1, SARS-CoV-2 PLpro (nsp3 1564–1878) (Severe acute respiratory syndrome coronavirus 2, UniProt P0DTD1). Description: biochemical. On the set-up: FRET-quenched peptide (Pro3) cleavage by PLpro, 10 min pre-incubation, slope over 20 min, normalised to no-compound control. The following applies: low concentration screen, read-out: % of control remaining.
Assay [2] deals with T1, SARS-CoV-2 PLpro (nsp3 1564–1878). Description: biochemical. The following applies: high concentration screen, read-out: % of control remaining. Further details: FRET-quenched peptide (Pro3) cleavage by PLpro, 10 min pre-incubation, slope over 20 min, normalised to no-compound control.

Regarding `OCc1c[nH]c2ccccc12` [Indole-3-carbinol], the remaining activity at 1.25 µM in assay [1] (Well no.=3524) was determined as 102%. In addition, the remaining activity at 3.75 µM in assay [2] (Well no.=3524) is 102%.
As to `O=C(O)c1c[nH]c2ccccc12` [Indole-3-carboxylic acid], in assay [1] (Well no.=6741), the remaining activity at 1.25 µM is 95.4%. Further, the remaining activity at 3.75 µM in assay [2] (Well no.=6741) turned out to be 97.8%.
With `COc1ccc2c(c1)c(CC(=O)N1CCOCC1)c(C)n2C(=O)c1ccc(Cl)cc1` [Indomethacin morpholinylamide], the remaining activity at 1.25 µM in assay [1] (Well no.=971) was 94.6%. Moreover, in assay [2] (Well no.=971), the remaining activity at 3.75 µM is 89.7%.
Take `CC1=C[C@]23C(=O)[C@@H](C=C(COC(=O)c4ccccc4)[C@@H](O)[C@]2(O)[C@H]1OC(=O)c1ccccc1)[C@H]1[C@@H](C[C@H]3C)C1(C)C` [Ingenol 3,20-dibenzoate]: the remaining activity at 1.25 µM in assay [1] (Well no.=3363) is 95%. Besides, the remaining activity at 3.75 µM in assay [2] (Well no.=3363) worked out at 97.2%.
For the molecule `CC1=C[C@]23C(=O)[C@@H](C=C(CO)[C@@H](O)[C@]2(O)[C@H]1O)[C@H]1[C@@H](C[C@H]3C)C1(C)C` [Ingenol], in assay [1] (Well no.=3308), the remaining activity at 1.25 µM amounted to 98.5%. Besides, the remaining activity at 3.75 µM in assay [2] (Well no.=3308) amounted to 99.1%.
As for `NC(=O)c1ccc(I)c([N+](=O)[O-])c1` [Iniparib (BSI-201)], in assay [1] (Well no.=5011), the remaining activity at 1.25 µM turned out to be 103%. For the same molecule, the remaining activity at 3.75 µM in assay [2] (Well no.=5011) is 103%.
`O=c1[nH]cnc2c1ncn2[C@@H]1O[C@H](CO)[C@@H](O)[C@H]1O` [Inosine]: the remaining activity at 1.25 µM in assay [1] (Well no.=5250) turned out to be 92.9%; in assay [1] (Well no.=6147) it was 105%; in assay [1] (Well no.=8835) it was 92.8%. The values for the remaining activity at 3.75 µM in assay [2] (Well no.=5250), in assay [2] (Well no.=6147) and in assay [2] (Well no.=8835) were 92.9%, 100% and 89.2%, respectively.
Take `O[C@H]1[C@H](O)[C@@H](O)[C@H](O)[C@@H](O)[C@H]1O` [Inositol]: the remaining activity at 1.25 µM in assay [1] (Well no.=5481) was 111%. The remaining activity at 3.75 µM in assay [2] (Well no.=5481) came to 111%.
In the case of `NC(=O)CI` [Iodoacetamide], the remaining activity at 1.25 µM in assay [1] (Well no.=430) was 104%. Moreover, in assay [2] (Well no.=430), the remaining activity at 3.75 µM was found to be 96.4%.
Take `CC(C)NC(C)Cc1ccc(I)cc1` (stereo not shown) [Iofetamine hydrochloride]: the remaining activity at 1.25 µM in assay [1] (Well no.=1017) worked out at 100%. Besides, the remaining activity at 3.75 µM in assay [2] (Well no.=1017) worked out at 105%.
As to `CC(C)[N+]1(C)[C@@H]2CC[C@H]1C[C@@H](OC(=O)C(CO)c1ccccc1)C2` (stereo partly shown) [Ipratropium bromide], in assay [1] (Well no.=526), the remaining activity at 1.25 µM amounted to 105%. In addition, the remaining activity at 3.75 µM in assay [2] (Well no.=526) is 103%.
With `CC(C)Oc1ccc2c(=O)c(-c3ccccc3)coc2c1` [Ipriflavone], the remaining activity at 1.25 µM in assay [1] (Well no.=5242) came to 95.6%. Besides, the remaining activity at 3.75 µM in assay [2] (Well no.=5242) came out at 97.9%.
Take `CC(C)NNC(=O)c1ccncc1` [Iproniazid phosphate]: in assay [1] (Well no.=775), the remaining activity at 1.25 µM amounted to 104%. In assay [2] (Well no.=775), the remaining activity at 3.75 µM stood at 105%.
For `CC(C)NNC(=O)c1ccncc1` [Iproniazid], the remaining activity at 1.25 µM in assay [1] (Well no.=2048) came out at 94.9%. Moreover, the remaining activity at 3.75 µM in assay [2] (Well no.=2048) turned out to be 96.1%.
Consider `CCCCC1=NC2(CCCC2)C(=O)N1Cc1ccc(-c2ccccc2-c2nnn[nH]2)cc1` [Irbesartan], for which the remaining activity at 1.25 µM in assay [1] (Well no.=8251) came out at 105%. Besides, the remaining activity at 3.75 µM in assay [2] (Well no.=8251) stood at 105%.
For the molecule `CCc1c2c(nc3ccc(OC(=O)N4CCC(N5CCCCC5)CC4)cc13)-c1cc3c(c(=O)n1C2)COC(=O)[C@]3(O)CC` [Irinotecan], the remaining activity at 1.25 µM in assay [1] (Well no.=5099) came to 99.6%. Besides, the remaining activity at 3.75 µM in assay [2] (Well no.=5099) worked out at 98.8%.
As to `Nc1nc(N)nc(-c2cc(Cl)ccc2Cl)n1` [Irsogladine], the remaining activity at 1.25 µM was 98.6% in assay [1] (Well no.=2148) and 94% in assay [1] (Well no.=7629). Further, the remaining activity at 3.75 µM in assay [2] (Well no.=2148) came to 98.3%; in assay [2] (Well no.=7629) it was 88.4%.
`O=C1Nc2ccccc2C1=O` [Isatin]: the remaining activity at 1.25 µM in assay [1] (Well no.=8350) came to 95.6%. Moreover, in assay [2] (Well no.=8350), the remaining activity at 3.75 µM was 95.1%.
As to `C#C[C@]1(CO)O[C@@H](n2cnc3c(N)nc(F)nc32)C[C@@H]1O` [Islatravir], the remaining activity at 1.25 µM in assay [1] (Well no.=7822) came to 105%. The remaining activity at 3.75 µM in assay [2] (Well no.=7822) turned out to be 105%.
As for `C=C1C(=O)O[C@@H]2C[C@@]3(C)CCCC(=C)[C@@H]3C[C@H]12` [Isoalantolactone], the remaining activity at 1.25 µM in assay [1] (Well no.=6728) worked out at 97.1%. Besides, the remaining activity at 3.75 µM in assay [2] (Well no.=6728) was found to be 93.6%.
With `CC(C)=CCc1c(O)ccc(C(=O)/C=C/c2ccc(O)cc2)c1O` [Isobavachalcone], the remaining activity at 1.25 µM in assay [1] (Well no.=6538) amounted to 102%. The remaining activity at 3.75 µM in assay [2] (Well no.=6538) is 97.1%.
For `O=C1NC(=O)c2c1c1c3ccccc3[nH]c1n1cncc21` [Isogranulatimide], in assay [1] (Well no.=2504), the remaining activity at 1.25 µM was 94.2%. In addition, the remaining activity at 3.75 µM in assay [2] (Well no.=2504) worked out at 90.7%.
Regarding `O=C(O)C1=CCNCC1` [Isoguvacine hydrochloride], the remaining activity at 1.25 µM in assay [1] (Well no.=412) was determined as 94.2%. In assay [2] (Well no.=412), the remaining activity at 3.75 µM is 91.8%.
As for `O=C(/C=C/c1ccc(O)cc1)c1ccc(O)cc1O` [Isoliquiritigenin], the remaining activity at 1.25 µM in assay [1] (Well no.=963) amounted to 99.7%. For the same molecule, the remaining activity at 3.75 µM in assay [2] (Well no.=963) came out at 101%.
As for `NNC(=O)c1ccncc1` [Isoniazid], the remaining activity at 1.25 µM in assay [1] (Well no.=1744) turned out to be 101%. Besides, the remaining activity at 3.75 µM in assay [2] (Well no.=1744) amounted to 103%.
On to `O=C(O)C1CCNCC1` [Isonipecotic acid], for which the remaining activity at 1.25 µM in assay [1] (Well no.=1067) was found to be 92.8%. Besides, the remaining activity at 3.75 µM in assay [2] (Well no.=1067) is 96.7%.
Consider `C=C[C@@]1(C)CC[C@H]2C(=CC[C@@H]3[C@]2(C)CCC[C@@]3(C)C(=O)O)C1` [Isopimaric Acid], for which the remaining activity at 1.25 µM in assay [1] (Well no.=5672) was 94.1%. Besides, the remaining activity at 3.75 µM in assay [2] (Well no.=5672) was 93.1%.
Consider `CC(C)NCC(O)c1ccc(O)c(O)c1` (stereo not shown) [Isoprenaline (hydrochloride)], for which the remaining activity at 1.25 µM in assay [1] (Well no.=6761) worked out at 99.4%. In addition, in assay [2] (Well no.=6761), the remaining activity at 3.75 µM stood at 101%.
Consider `COc1cc(-c2oc3cc(O)cc(O)c3c(=O)c2O)ccc1O` [Isorhamnetine], for which the remaining activity at 1.25 µM in assay [1] (Well no.=3150) was determined as 99.4%. For the same molecule, the remaining activity at 3.75 µM in assay [2] (Well no.=3150) worked out at 99.7%.
Regarding `C[C@@H]1O[C@@H](OC[C@H]2O[C@@H](Oc3cc(O)c4c(=O)cc(-c5ccc(O)cc5)oc4c3)[C@H](O)[C@@H](O)[C@@H]2O)[C@H](O)[C@H](O)[C@H]1O` [Isorhoifolin], the remaining activity at 1.25 µM in assay [1] (Well no.=3297) is 99.4%. For the same molecule, in assay [2] (Well no.=3297), the remaining activity at 3.75 µM came out at 104%.
With `COc1ccc2cc1Oc1ccc(cc1)C[C@H]1c3cc(c(OC)cc3CCN1C)Oc1c(OC)c(OC)cc3c1[C@@H](C2)N(C)CC3` [Isotetrandrine], in assay [1] (Well no.=3365), the remaining activity at 1.25 µM was 100%. Besides, in assay [2] (Well no.=3365), the remaining activity at 3.75 µM worked out at 98.1%.
In the case of `CCC(NC(C)C)C(O)c1ccc(O)c(O)c1` (stereo not shown) [Isotharine mesylate], the remaining activity at 1.25 µM in assay [1] (Well no.=915) is 104%. Moreover, the remaining activity at 3.75 µM in assay [2] (Well no.=915) turned out to be 104%.
